Measurements reported in US20050239656A1, “Pyridine compounds or salts thereof and herbicides containing the same” (priority 2002, published 2005).

Columns and labels:
barnyardgrass = assay: Test Example 3: paddy pot test, application under submerged conditions; type: in vivo, Echinochloa crus-galli L.; conditions: submerged application at 0.5 leaf stage, visually observed 14 days after application, 0 = non-treated, 100 = complete kill
Description: (§1) Paddy field soil was put into a 1/1,000,000 ha pot, and seed of barnyardgrass and japanese bulrush were sown and slightly covered with soil. Then, the pot was left to stand still in a greenhouse in a state where the depth of flooding water was from 0.5 to 1 cm, and one day or two days later, tubers of japanese ribbon wapato were planted. Thereafter, the depth of flooding water was maintained at a level of from 3 to 4 cm, and when barnyardgrass and japanese bulrush reached a 0.5 leaf stage and japanese ribbon wapato reached a primary leaf stage, an aqueous diluted solution of a wettable powder or emulsifiable concentrate having the compound of the present invention formulated in accordance with a usual formulation method, was uniformly applied under submerged conditions by a pipette so that the dose of the active ingredient would be at a predetermined level. On the 14 days after the application of the herbicide, the growth of barnyard grass, japanese burlrush and japanese ribbon wapato was visually observed and on the 21st day after the application of the herbicide, the growth of rice was visually observed, and the herbicidal effects were evaluated by the growth-controlling degrees (%) ranging from 0 (equivalent to the non-treated plot) to 100 (complete kill), whereby the results shown in Table 5 were obtained.

japanese bulrush = assay: as above; type: in vivo, Scirpus juncoides; conditions: submerged application at 0.5 leaf stage, visually observed 14 days after application, 0 = non-treated, 100 = complete kill
Description: as §1

japanese ribbon wapato = assay: as above; type: in vivo, Sagittaria pygniaea; conditions: submerged application at primary leaf stage, visually observed 14 days after application, 0 = non-treated, 100 = complete kill
Description: as §1

rice (var. Nihonbare) = assay: Test Example 3: paddy pot test, transplanted rice; type: in vivo, Oryza sativa L.; conditions: applied 4th day after transplantation, visually observed 21st day after application, 0 = non-treated, 100 = complete kill
Description: as §1, with “On the other hand, paddy field soil was put into a 1/1,000,000 ha pot and puddled and leveled, and the depth of flooding water was from 3 to 4 cm. Next day, rice (var. Nihonbare) of 2 leaf stage was transplanted in a depth of 3 cm. On the 4th day after the transplantation, the compound of the present invention was applied in the same manner as described above. On the 14 days” for “On the 14 days”

Structure (SMILES) | Growth controlling degree (%) Barnyardgrass (barnyardgrass; active ingredient 250 g/ha) [%] | Growth controlling degree (%) Japanese bulrush (japanese bulrush; active ingredient 250 g/ha) [%] | Growth controlling degree (%) Japanese ribbon wapato (japanese ribbon wapato; active ingredient 250 g/ha) [%] | Growth controlling degree (%) Rice (rice (var. Nihonbare); active ingredient 250 g/ha) [%] | Growth controlling degree (%) Barnyardgrass (barnyardgrass; active ingredient 500 g/ha) [%] | Growth controlling degree (%) Japanese bulrush (japanese bulrush; active ingredient 500 g/ha) [%] | Growth controlling degree (%) Japanese ribbon wapato (japanese ribbon wapato; active ingredient 500 g/ha) [%] | Growth controlling degree (%) Rice (rice (var. Nihonbare); active ingredient 500 g/ha) [%]
CCN(C(=O)Cc1ccccc1F)C(c1cnccc1C(F)(F)F)C(C)C (centres unmarked) [I-78] | 100 | 70 | 40 | 20 | – | – | – | –
CC(C)C(c1cnccc1Cl)N(C)C(=O)Cc1ccc(Cl)c(Cl)c1 (centres unmarked) [I-80] | 98 | 90 | 20 | 20 | – | – | – | –
Cc1ccccc1CC(=O)N(C)C(c1cnccc1Cl)C(C)C (centres unmarked) [I-83] | 98 | 98 | 20 | 10 | – | – | – | –
Cc1cccc(CC(=O)N(C)C(c2cnccc2Cl)C(C)C)c1 (centres unmarked) [I-88] | 100 | 70 | 50 | 0 | – | – | – | –
CC(C)C(c1cnccc1Cl)N(C)C(=O)Cc1c(F)ccc(F)c1F (centres unmarked) [I-89] | 100 | 95 | 40 | 0 | – | – | – | –
CC(C)C(c1cnccc1C(F)(F)F)N(C)C(=O)Cc1cc(Cl)cc(Cl)c1 (centres unmarked) [I-91] | 90 | 20 | 20 | 0 | – | – | – | –
CC(C)C(c1cccnc1)N(C)C(=O)Cc1ccccc1 (centres unmarked) [I-93] | – | – | – | – | 60 | 95 | 30 | 0
CCN(C(=O)Cc1cc(F)ccc1F)C(c1cnccc1C(F)(F)F)C(C)C (centres unmarked) [I-98] | 100 | 80 | 40 | 10 | – | – | – | –
Cc1ccc(F)c(CC(=O)N(C)C(c2cnccc2C(F)(F)F)C(C)C)c1 (centres unmarked) [I-108] | 98 | 100 | 60 | 10 | – | – | – | –
CC(C)C(c1cnccc1C(F)(F)F)N(C)S(=O)(=O)c1ccc(C(F)(F)F)cc1 (centres unmarked) [I-146] | 98 | 80 | 0 | 20 | – | – | – | –
CC(C)C(c1cnccc1C(F)(F)F)N(C)C(=O)C=COc1ccccc1 (centres unmarked) [I-166, N-methyl-N-[2-methyl-1-(4-trifluoromethylpyridin-3-yl)propyl]3-phenoxypropenamide] | 100 | 95 | 0 | 0 | – | – | – | –
CC(C)C(c1cnccc1C(F)(F)F)N(C)C(=O)C=Cc1ccc(Cl)cc1 (centres unmarked) [I-171] | 60 | 98 | 0 | 0 | – | – | – | –
CC(C)C(c1cnccc1C(F)(F)F)N(C)C(=O)C=Cc1cccs1 (centres unmarked) [I-173] | 90 | 95 | 30 | 0 | – | – | – | –
CC(=CC(=O)N(C)C(c1cnccc1C(F)(F)F)C(C)C)c1ccccc1 (centres unmarked) [I-174] | 10 | 95 | 0 | 0 | – | – | – | –
CC(C)C(c1cnccc1C(F)(F)F)N(C)C(=O)C=C1CCCC1 (centres unmarked) [I-176] | 98 | 98 | 0 | 0 | – | – | – | –
CC(C)C(c1cnccc1C(F)(F)F)N(C)C(=O)C=C1CCCCC1 (centres unmarked) [I-177] | 60 | 98 | 20 | 20 | – | – | – | –
CC(C)C(c1cnccc1C(F)(F)F)N(C)C(=O)C=Cc1cccc(Br)c1 (centres unmarked) [I-179] | – | – | – | – | 90 | 90 | 30 | 10
CC(C)C(c1cnccc1C(F)(F)F)N(C)C(=O)C=Cc1ccc2ccccc2c1 (centres unmarked) [I-188] | – | – | – | – | 100 | 0 | 0 | 0
CC(C)C(c1cnccc1C(F)(F)F)N(C)C(=O)C1CCCC1 (centres unmarked) [I-212] | 100 | 98 | 80 | 30 | – | – | – | –
CCN(C(=O)N(C)C(c1cnccc1C(F)(F)F)C(C)C)c1ccccc1 (centres unmarked) [I-233] | – | – | – | – | 95 | 90 | 40 | 10
CC(C)C(c1cnccc1C(F)(F)F)N(C)C(=O)COc1ccccc1Cl (centres unmarked) [I-235] | 100 | 90 | 60 | 0 | – | – | – | –
CC(C)C(c1cnccc1C(F)(F)F)N(C)C(=O)COc1ccc(Cl)cc1Cl (centres unmarked) [I-236] | 95 | 80 | 70 | 0 | – | – | – | –
CC(C)C(c1cnccc1C(F)(F)F)N(C)C(=O)COc1ccc([N+](=O)[O-])cc1 (centres unmarked) [I-237] | 95 | 95 | 40 | 0 | – | – | – | –
